From patent US9351955B2, “Compounds and pharmaceutical compositions thereof for the treatment of cystic fibrosis” (Galapagos NV, priority 2013, dated 2016)
pEC50: −log10 of the molar value.

Target: T1, CFTR ΔF508 mutant (Homo sapiens, UniProt P13569, DEL508-508)
T1 construct: expressed in transfected cells; host or cells: CFBE41o- (adenoviral transduction)
Experiment: YFP-halide influx assay for the CFTR-ΔF508 mutation (384 well, CFBE41o- cells, FDSS/μCell)
Type: cell-based
Details: forskolin 10.67 μM, fluorescence after 36 seconds, read-out: EC50 measured by YFP-halide influx assay for the CFTR-ΔF508
Excerpt: 6.2. YFP-Halide Influx Assay for the CFTR-ΔF508 Mutation
The YFP halide influx assay measures the functionality of the cystic fibrosis Transmembrane Conductance regulator (CFTR) channels in the cystic fibrosis bronchial epithelium cell line CFBE41o-. The assay is used to evaluate the capacity of compounds to increase the open probability of existing CFTR channels in the membrane. It makes use of the observation that the yellow fluorescent protein (YFP) variant YFP H148Q, I152L has its fluorescence substantially quenched by halide ions like Cl— and I— (Galietta et al., 2001; Nagai et al., 2002).
For this purpose, CFBE410-cells are seeded in 384 well plates (3000 CFBE cells/well). One day after seeding, the CFBE cells are transduced with adenoviral vectors that direct the expression of the CFTR ΔF508 mutant and of the YFP reporter. Cells are incubated at 27° C., 5% CO2 for 24 hours so as to allow for the proper folding and migration to the membrane of the CFTR channel or treated with a CFTR modulator during 24 h at 37° C.
The I— induced quenching of fluorescence is recorded […] immediately after injection of I— for 2 min on an FDSS/μCell (Hamamatsu). The capacity of a compound to increase the channel opening is directly correlated with the decrease in fluorescence, and is expressed as (1−(fluorescence after 36 seconds (F)/fluorescence before injection (F0))) and an EC50 can be derived from a (1−F/F0) vs compound concentration plot.

T1 sequence (P13569 with tags, fused parts or gaps DEL508-508): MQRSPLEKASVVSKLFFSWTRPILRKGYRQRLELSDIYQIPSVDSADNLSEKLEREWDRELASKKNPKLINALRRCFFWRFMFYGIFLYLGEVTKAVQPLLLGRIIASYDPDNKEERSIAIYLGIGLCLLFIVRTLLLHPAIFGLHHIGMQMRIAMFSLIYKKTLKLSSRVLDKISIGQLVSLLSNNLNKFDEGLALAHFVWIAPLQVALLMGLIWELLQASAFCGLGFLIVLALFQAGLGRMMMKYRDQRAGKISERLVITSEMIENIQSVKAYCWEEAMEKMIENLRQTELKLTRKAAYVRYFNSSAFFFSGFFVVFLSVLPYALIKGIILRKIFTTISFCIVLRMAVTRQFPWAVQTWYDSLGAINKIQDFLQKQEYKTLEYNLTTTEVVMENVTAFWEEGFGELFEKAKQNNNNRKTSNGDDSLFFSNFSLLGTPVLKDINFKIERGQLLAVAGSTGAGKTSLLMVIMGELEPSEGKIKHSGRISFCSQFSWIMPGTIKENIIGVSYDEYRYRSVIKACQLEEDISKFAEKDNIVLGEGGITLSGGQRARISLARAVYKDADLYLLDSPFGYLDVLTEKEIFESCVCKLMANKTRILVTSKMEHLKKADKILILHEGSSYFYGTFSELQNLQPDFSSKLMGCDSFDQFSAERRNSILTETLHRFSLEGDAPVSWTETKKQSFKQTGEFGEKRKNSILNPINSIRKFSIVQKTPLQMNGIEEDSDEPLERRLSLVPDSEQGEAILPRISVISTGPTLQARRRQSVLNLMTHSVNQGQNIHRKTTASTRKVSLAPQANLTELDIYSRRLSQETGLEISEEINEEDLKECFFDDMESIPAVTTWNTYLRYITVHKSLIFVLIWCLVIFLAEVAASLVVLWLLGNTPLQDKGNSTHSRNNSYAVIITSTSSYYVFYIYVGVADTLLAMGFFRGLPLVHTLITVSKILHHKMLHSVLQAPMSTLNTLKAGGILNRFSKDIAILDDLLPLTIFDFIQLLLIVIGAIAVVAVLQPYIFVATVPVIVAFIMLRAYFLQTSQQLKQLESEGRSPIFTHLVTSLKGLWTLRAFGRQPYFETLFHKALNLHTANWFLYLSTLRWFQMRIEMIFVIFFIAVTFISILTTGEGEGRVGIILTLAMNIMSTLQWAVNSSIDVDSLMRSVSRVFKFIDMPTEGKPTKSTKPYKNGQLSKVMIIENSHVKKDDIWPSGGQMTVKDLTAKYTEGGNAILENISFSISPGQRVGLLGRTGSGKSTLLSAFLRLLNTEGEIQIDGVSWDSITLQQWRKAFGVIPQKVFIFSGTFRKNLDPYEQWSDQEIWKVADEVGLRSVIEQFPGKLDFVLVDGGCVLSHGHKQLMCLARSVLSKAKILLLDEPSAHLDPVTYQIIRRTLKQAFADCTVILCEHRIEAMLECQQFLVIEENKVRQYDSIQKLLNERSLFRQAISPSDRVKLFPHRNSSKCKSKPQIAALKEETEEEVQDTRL

| Structure (SMILES) | pEC50 |
| --- | --- |
| CC1(C)Cc2c(sc(NC(=O)C3CC3F)c2C(N)=O)C(C)(C)O1 (single isomer, unassigned) [Compound 43, Cis-2-[[2-fluorocyclopropanecarbonyl]amino]-5,5,7,7-tetramethyl-4H-thieno[2,3-c]pyran-3-carboxamide] | 6.30 |
| CC1(C)Cc2c(sc(NC(=O)C3CC3F)c2C(N)=O)C(C)(C)O1 (single isomer, unassigned) [Compound 44, Cis-2-[[2-fluorocyclopropanecarbonyl]amino]-5,5,7,7-tetramethyl-4H-thieno[2,3-c]pyran-3-carboxamide] | 6.56 |
| COCC(C)(O)C(=O)Nc1sc2c(c1C(N)=O)CC(C)(C)OC2(C)C (single isomer, unassigned) [Compound 165, 2-[[2-hydroxy-3-methoxy-2-methyl-propanoyl]amino]-5,5,7,7-tetramethyl-4H-thieno[2,3-c]pyran-3-carboxamide] | 6.84 |
| COCC(C)(O)C(=O)Nc1sc2c(c1C(N)=O)CC(C)(C)OC2(C)C (single isomer, unassigned) [Compound 166] | 6.93 |
| CCOc1cc(C(=O)Nc2sc3c(c2C(N)=O)CC(C)(C)OC3(C)C)n[nH]1 [Compound 54, 5-Ethoxy-1H-pyrazole-3-carboxylic acid (3-carbamoyl-5,5,7,7-tetramethyl-4,7-dihydro-5H-thieno[2,3-c]pyran-2-yl)-amide] | 8.07 |
| CC(C)(O)CC(=O)Nc1sc2c(c1C(N)=O)CC(C)(C)OC2(C)C [Compound 56, 2-[(3-hydroxy-3-methyl-butanoyl)amino]-5,5,7,7-tetramethyl-4H-thieno[2,3-c]pyran-3-carboxamide] | 7.10 |
| CC(O)CC(=O)Nc1sc2c(c1C(N)=O)CC(C)(C)OC2(C)C (stereo not drawn) [Compound 58, 2-(3-hydroxybutanoylamino)-5,5,7,7-tetramethyl-4H-thieno[2,3-c]pyran-3-carboxamide] | 6.75 |
| CC1(C)Cc2c(sc(NC(=O)[C@H]3C[C@@H]3CO)c2C(N)=O)C(C)(C)O1 [Compound 83, 2-[[(1S,2S)-2-(hydroxymethyl)cyclopropanecarbonyl]amino]-5,5,7,7-tetramethyl-4H-thieno[2,3-c]pyran-3-carboxamide] | 6.19 |
| CCC(CO)C(=O)Nc1sc2c(c1C(N)=O)CC(C)(C)OC2(C)C (stereo not drawn) [Compound 86, 2-[2-(hydroxymethyl)butanoylamino]-5,5,7,7-tetramethyl-4H-thieno[2,3-c]pyran-3-carboxamide] | 6.80 |
| CC1(C)Cc2c(sc(NC(=O)C(CO)C(C)(C)C)c2C(N)=O)C(C)(C)O1 (stereo not drawn) [Compound 89, 2-[[2-(hydroxymethyl)-3,3-dimethyl-butanoyl]amino]-5,5,7,7-tetramethyl-4H-thieno[2,3-c]pyran-3-carboxamide] | 6.50 |
| CC1(C)Cc2c(sc(NC(=O)C3(CO)CC3(C)C)c2C(N)=O)C(C)(C)O1 (stereo not drawn) [Compound 91, 2-[[1-(hydroxymethyl)-2,2-dimethyl-cyclopropanecarbonyl]amino]-5,5,7,7-tetramethyl-4H-thieno[2,3-c]pyran-3-carboxamide] | 7.19 |
| CC1(C)Cc2c(sc(NC(=O)C3CCC(=O)N3)c2C(N)=O)C(C)(C)O1 (stereo not drawn) [Compound 107, N-(3-carbamoyl-5,5,7,7-tetramethyl-4H-thieno[2,3-c]pyran-2-yl)-5-oxo-pyrrolidine-2-carboxamide] | 6.41 |
| Cn1ncc(C(=O)Nc2sc3c(c2C(N)=O)CC(C)(C)OC3(C)C)c1C(F)F [Compound 118, N-(3-carbamoyl-5,5,7,7-tetramethyl-4H-thieno[2,3-c]pyran-2-yl)-5-(difluoromethyl)-1-methyl-pyrazole-4-carboxamide] | 6.52 |
| Cc1csc(C(=O)Nc2sc3c(c2C(N)=O)CC(C)(C)OC3(C)C)n1 [Compound 131, N-(3-carbamoyl-5,5,7,7-tetramethyl-4H-thieno[2,3-c]pyran-2-yl)-4-methyl-thiazole-2-carboxamide] | 6.77 |
| CC1(C)Cc2c(sc(NC(=O)c3cnccn3)c2C(N)=O)C(C)(C)O1 [Compound 138, N-(3-carbamoyl-5,5,7,7-tetramethyl-4H-thieno[2,3-c]pyran-2-yl)pyrazine-2-carboxamide] | 7.28 |
| Cc1noc(C)c1C(=O)Nc1sc2c(c1C(N)=O)CC(C)(C)OC2(C)C [Compound 140, N-(3-carbamoyl-5,5,7,7-tetramethyl-4H-thieno[2,3-c]pyran-2-yl)-3,5-dimethyl-isoxazole-4-carboxamide] | 6.84 |
| Cc1ccn2c(=O)c(C(=O)Nc3sc4c(c3C(N)=O)CC(C)(C)OC4(C)C)cnc2c1 [Compound 144, N-(3-carbamoyl-5,5,7,7-tetramethyl-4H-thieno[2,3-c]pyran-2-yl)-8-methyl-4-oxo-pyrido[1,2-a]pyrimidine-3-carboxamide] | 6.33 |
| CC1(C)Cc2c(sc(NC(=O)c3cnc4c(c3)OCCO4)c2C(N)=O)C(C)(C)O1 [Compound 145, N-(3-carbamoyl-5,5,7,7-tetramethyl-4H-thieno[2,3-c]pyran-2-yl)-2,3-dihydro-[1,4]dioxino[2,3-b]pyridine-7-carboxamide] | 6.81 |
| Cc1oncc1C(=O)Nc1sc2c(c1C(N)=O)CC(C)(C)OC2(C)C [Compound 146, N-(3-carbamoyl-5,5,7,7-tetramethyl-4H-thieno[2,3-c]pyran-2-yl)-5-methyl-isoxazole-4-carboxamide] | 6.69 |
| CC1(C)Cc2c(sc(NC(=O)C3(C)COC3)c2C(N)=O)C(C)(C)O1 [Compound 147, 5,5,7,7-tetramethyl-2-[(3-methyloxetane-3-carbonyl)amino]-4H-thieno[2,3-c]pyran-3-carboxamide] | 6.77 |
| Cc1cc2nnc(C(=O)Nc3sc4c(c3C(N)=O)CC(C)(C)OC4(C)C)c(C)n2n1 [Compound 149, N-(3-carbamoyl-5,5,7,7-tetramethyl-4H-thieno[2,3-c]pyran-2-yl)-4,7-dimethyl-pyrazolo[5,1-c][1,2,4]triazine-3-carboxamide] | 6.46 |
| C[C@H](O)C(=O)Nc1sc2c(c1C(N)=O)CC(C)(C)OC2(C)C [Compound 153, 2-[[(2S)-2-hydroxypropanoyl]amino]-5,5,7,7-tetramethyl-4H-thieno[2,3-c]pyran-3-carboxamide] | 7.47 |
| COCC(C)(O)C(=O)Nc1sc2c(c1C(N)=O)CC(C)(C)OC2(C)C (stereo not drawn) [Compound 155, 2-[(2-hydroxy-3-methoxy-2-methyl-propanoyl)amino]-5,5,7,7-tetramethyl-4H-thieno[2,3-c]pyran-3-carboxamide] | 7.15 |
| CC1(C)Cc2c(sc(NC(=O)c3n[nH]c4ncccc34)c2C(N)=O)C(C)(C)O1 [Compound 157, N-(3-carbamoyl-5,5,7,7-tetramethyl-4H-thieno[2,3-c]pyran-2-yl)-1H-pyrazolo[3,4-b]pyridine-3-carboxamide] | 7.48 |
| CC1(C)Cc2c(sc(NC(=O)C3CCOCC3)c2C(N)=O)C(C)(C)O1 [Compound 158, 5,5,7,7-tetramethyl-2-(tetrahydropyran-4-carbonylamino)-4H-thieno[2,3-c]pyran-3-carboxamide] | 6.52 |
| COCC(=O)Nc1sc2c(c1C(N)=O)CC(C)(C)OC2(C)C [Compound 160, 2-[(2-methoxyacetyl)amino]-5,5,7,7-tetramethyl-4H-thieno[2,3-c]pyran-3-carboxamide] | 6.19 |
| CC1(C)Cc2c(sc(NC(=O)C3CCCO3)c2C(N)=O)C(C)(C)O1 (stereo not drawn) [Compound 162, 5,5,7,7-tetramethyl-2-(tetrahydrofuran-2-carbonylamino)-4H-thieno[2,3-c]pyran-3-carboxamide] | 6.22 |
